Here are results for ten compounds from patent publication US5973229A, “Gene encoding herbicide safener binding protein” (Board of Trustees Operating Michigan State University, priority 1997, dated 1999).

Test [1] has as its system safener binding activity (SafBA) / SafBP. Conditions: cited from earlier work; for IC50: maize SafBA, from Walton and Casida 1995, read-out: IC50 (inhibitor concentration that reduces specific [3H]Saf binding by 50%).
The target in test [2] is T1, SafBP (SBP1 expressed in E. coli) (Zea mays, UniProt O49010).
T1 construct: possible vector-derived N-terminal residues
T1 sequence (O49010 1-363): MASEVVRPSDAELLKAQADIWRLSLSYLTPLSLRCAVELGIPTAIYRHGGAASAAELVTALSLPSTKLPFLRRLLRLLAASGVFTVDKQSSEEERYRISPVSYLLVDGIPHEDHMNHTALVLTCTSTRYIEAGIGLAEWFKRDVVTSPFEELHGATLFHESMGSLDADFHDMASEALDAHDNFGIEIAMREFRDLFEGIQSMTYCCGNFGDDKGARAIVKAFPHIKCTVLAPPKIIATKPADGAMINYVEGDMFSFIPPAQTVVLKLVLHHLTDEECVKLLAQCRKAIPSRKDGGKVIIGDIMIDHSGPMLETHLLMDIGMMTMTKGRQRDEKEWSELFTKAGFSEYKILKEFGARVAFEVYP
The experiment in a line: [3H]Saf binding in extracts of E. coli expressing SBP1. Details: species or system maize (Zea mays L.). Conditions: for Total [3H]Saf binding: E. coli/SBP1 2-hr extract, 20.9 μg protein, [3H]R-29148 alone 67.3, average of duplicates. Here is the method: Binding Assay. Racemic R-29148 (Saf) and [^3 H]Saf (specific activity 15 Ci/mmol) were prepared according to Latli, B. et al., J. Labelled Cmpd Radiopharmn. 36:147-155 (1995). The sources of other chemicals are given in Walton, J. D. and Casida, J. E., Plant Physiol. 109:213-219 (1995). [^3 H]Saf binding was measured by incubating extracts with ca. 400,000 cpm of [^3 H]Saf in 50 mM Tris-HCl, pH 8, in a total volume of 1 mL for 60 min at 22° C. The extracts were then filtered through GF/A (Whatman) glass fiber filters that had been soaked in 0.3% polyethylenimine, the filters rinsed with water, and radioactivity retained on the filters measured by scintillation counting. Walton, J. D. and Casida, J. E., Plant Physiol. 109:213-219 (1995).
Expression of SafBP in E. coli. Vector pZL1 (Gibco-BRL) containing the SafBP cDNA clone was digested with EcoRI and NotI, the 1.5-kb insert cloned into the corresponding sites in the E. coli expression vector pET21c (Novagen, Madison, Wis.), and the resulting construct transformed into E. coli strain BL21(DE3) (Novagen). A 50-mL culture of this strain was grown at 37° C. to an OD600 of 0.5 at which point expression of the cDNA was induced with 1 mM isopropylthiogalactoside (IPTG). As a control, E. coli BL21(DE3) transformed with pET21c with no insert was grown in parallel. Samples (each 12.5 mL) were removed at 0, 1, 2, and 3 hr after induction, centrifuged, and extracted by the freeze-thaw method according to Novagen, and centrifuged again to remove cell debris. Each sample was in a final volume of 5 mL of 50 mM Tris-HCl, pH 8; 50 μL of this was used in the [^3 H]Saf binding assay according to Walton and Casida. Walton, J. D. and Casida, J. E., Plant Physiol. 109:213-219 (1995).
SBP1 was expressed in E. coil behind an IPTG-inducible promoter. Extracts of E. coil expressing SBP1 have strong SafBA whereas cells transformed with the empty expression vector have no binding (Table II). […] After growing to an OD600 of 0.5, cells were induced with IPTG and aliquots harvested at the indicated times after induction, lysed, and centrifuged to remove cell debris. Final volume of each extract was 5 mL. Control cells were transformed with the vector without insert. Values are the average of duplicates. Like [^3 H]Saf binding to the native maize protein, [^3 H]Saf binding in E. coli extracts is inhibited by dichlormid, EPTC, metolachlor, acetochlor, and alachlor (Table III). Table III provides inhibition of [^3 H]Saf binding by safeners and herbicides in extracts of E. coli expressing SBP1. The E.coli/SBP1 2-hr time point from […] was used; protein content per sample was 20.9 μg. Values are the average of duplicates.

The mark [3] stands for this setting: competitor Concentration 1.1 (unit not given).

As for `CCSC(=O)N(CC)C1CCCCC1` [cycloate], the “SafBP binds herbicide” value in test [1] is on record as “binds”.
What is called Kd is the free concentration of one partner at which half of the binding sites on the other are occupied at equilibrium, for simple one-to-one binding. Take `CC1CN(C(=O)C(Cl)Cl)C(C)(C)O1` (racemic) [R-29148, (R,S)-3-dichloroacetyl-2,2,5-trimethyloxazolidine]: the “Total [3H]Saf binding” value in test [2] (competitor Concentration 2.5 (unit not given)) amounted to 3.0. In addition, the IC50 in test [1] was 120 nM. Besides, the Kd in test [1] (soluble, high affinity binding activity in extracts of etiolated maize seedlings, read-out: Kd of safener binding activity (SafBA) for [3H]Saf) was 120 nM.
Consider `CCCN(CCC)C(=O)SCC` [EPTC, S-ethyl dipropylthiocarbamate], for which, in test [2], the “Inhibition of R-29148 binding in extracts of E. coli cells expressing SBP1” value (shortened to “Inhibition of R-29148 binding”) is given as “competitively inhibited”. In addition, the “Total [3H]Saf binding” value in test [2] (competitor Concentration 1.6 (unit not given)) amounted to 1.7. Also, in test [1], the “SafBP binds herbicide” value is “binds” and the IC50 was 110 nM.
With `CCc1cccc(CC)c1N(COC)C(=O)CCl` [alachlor], the “Inhibition of R-29148 binding” value in test [2] is recorded as “competitively inhibited”. In test [2] (setting [3]), the “Total [3H]Saf binding” value was 1.7. Also, in test [1], the “SafBP binds herbicide” value is recorded as “binds” and the IC50 is 70 nM.
For the compound `CCSC(=O)N(CC(C)C)CC(C)C` [butylate], in test [1], the “SafBP binds herbicide” value is on record as “binds”.
`CC(C)N(C(=O)CCl)c1ccccc1` [propachlor]: the “SafBP binds herbicide” value in test [1] was “binds”.
Consider `C=CCN(CC=C)C(=O)C(Cl)Cl` [dichlormid], for which the “Inhibition of R-29148 binding” value in test [2] is recorded as “competitively inhibited”. In test [2] (competitor Concentration 1.4 (unit not given)), the “Total [3H]Saf binding” value came out at 0.7. Further, the IC50 in test [1] is 10 nM.
For `CCOCN(C(=O)CCl)c1c(C)cccc1CC` [acetochlor], the “Inhibition of R-29148 binding” value in test [2] is “inhibited”. For the same compound, the “Total [3H]Saf binding” value in test [2] (setting [3]) is 21.6. Further, in test [1], the “SafBP binds herbicide” value was “binds” and the IC50 was 180 nM.
Turning to `CC(C)N(C(=O)SCC(Cl)=C(Cl)Cl)C(C)C` [triallate], the “SafBP binds herbicide” value in test [1] is recorded as “binds”.
In the case of `CCc1cccc(C)c1N(C(=O)CCl)C(C)COC` (centres unmarked) [metolachlor], in test [2], the “Inhibition of R-29148 binding” value was “competitively inhibited”. The “Total [3H]Saf binding” value in test [2] (setting [3]) worked out at 3.3. Besides, in test [1], the “SafBP binds herbicide” value is on record as “binds” and the IC50 was 40 nM.
